# Key:
# [1] = test system: plasma protein extravasation response within the dura mater; experiment: Inhibition of plasma protein extravasation within the dura mater following unilateral electrical trigeminal ganglion stimulation; format: in vivo, guinea pig; conditions: for minimal effective dose: Cavia porcellus, iv, i.v. in guinea pigs, read-out: M.E.D. (minimally effective dose) for inhibition of plasma protein extravasation
# Experimental: The active compounds of the present invention are also evaluated via the inhibition of plasma protein extravasation response within the dura mater of guinea pigs following unilateral electrical trigeminal ganglion stimulation. The extent to which they mimic sumatriptan, in terms of both potency and efficacy, is determined in this assay. The procedure is performed on male Hartley guinea pigs (200-250 g, Charles River Laboratories, Wilmington, Mass., U.S.A.) as described in Markowitz et al., J. Neurosci., 7 (12), 4129-4136 (1987) and also in Lee, et al., Brain Reseach, 626, 303-305 (1993). The procedure briefly consists of placing pentobarbitone-anesthetized animals in a stereotaxic frame. ^125 I-BSA (bovine serum albumin) (50 μCi/kg^-1) is first injected into the femoral vein, followed 5 minutes later by drug or vehicle. Bipolar electrodes are then lowered into the trigeminal ganglia, and the right ganglion is stimulated for 5 minutes (1.2 mA, 5 Hz, 5 msec). The animal is then perfused with saline through the left cardiac ventricle and sacrificed, and the dura mater is dissected, weighed, and counted for radioactivity. Cpm/mg wet weight values are determined for the right vs left dura mater, and a ratio for the stimulated vs unstimulated sides is generated for each animal. Unpaired student's t-test is used to statistically compare these ratio values in respective groups treated with vehicle or drug.
# [2] = Solid-state and solubility properties of the α-form of the hydrobromide salt; format: physicochemical; conditions: crystalline α-form of the hydrobromide salt
# [3] = test system: dog isolated saphenous vein strip; conditions: antagonist of the vein strip contraction; cited from earlier work
# [4] = test system: carotid vascular resistance; conditions: anaesthetized dog; cited from earlier work
smiles,measurement,setting,value
"CNS(=O)(=O)Cc1ccc2[nH]cc(C[C@H]3CCCN3C)c2c1 [Example 5A, (R)-5-(Methylaminosulfonylmethyl)-3-(N-methylpyrrolidin-2-ylmethyl)-1H-indole]",minimal effective dose,[1],1e-06 µmol/kg
"Br.CN1CCC[C@@H]1Cc1c[nH]c2ccc(CCS(=O)(=O)c3ccccc3)cc12 [α-form, (R)-5-(2-phenylsulphonylethyl)-3-(N-methylpyrrolidin-2-ylmethyl)-1H-indole hydrobromide]",hygroscopicity,[2],non-hygroscopic
same,solid-state stability,[2],possesses solid-state stability
same,solubility and dissolution behavior,[2],acceptable solubility and dissolution behavior
"CNS(=O)(=O)Cc1ccc2[nH]cc(C[C@H]3CCCN3)c2c1 [Example 6A, (R)-5-(Methylaminosulfonylmethyl)-3-(pyrrolidin-2-ylmethyl)-1H-indole]",minimal effective dose,[1],1e-07 µmol/kg
CSc1ccc2c(c1)C(N1CCN(C)CC1)Cc1ccccc1S2 (centres unmarked) [methiothepin],block of the contractile effect by a known serotonin antagonist,[3],blocked
"CN1C[C@H](CNC(=O)OCc2ccccc2)C[C@@H]2c3cccc4c3c(cn4C)C[C@H]21 [metergoline, reference compound]",block of the effect of the drugs by a known serotonin antagonist,[1]; antagonist of the inhibition of plasma protein extravasation,partially blocked
CNS(=O)(=O)Cc1ccc2[nH]cc(CCN(C)C)c2c1 [Sumatriptan],increase in carotid vascular resistance,[4],selective increase in carotid vascular resistance

# — patent publication US5559129A, “Indole derivatives” (priority 1995, dated 1996)
